Consider one compound from publication PMC11506481, “Influence of Harvesting Stage on Phytochemical Composition, Antioxidant, and Antidiabetic Activity of Immature Ceratonia siliqua L. Pulp from Béni Mellal-Khénifra Region, Morocco: In Silico, In Vitro, and In Vivo Approaches” (Current Issues in Molecular Biology, 2024).

The test addresses T1, intestinal α-glucosidase.
T1 construct: gene MAL12; human 5NN8 only used for docking
The experiment in a line: sucrose hydrolysis, GOD-POD glucose read-out at […] nm. The test is classed as biochemical. Conditions: sucrose as substrate; phosphate buffer pH 7.5; 37 °C.

In brackets after ≈: the same amount, converted by molar mass.

By IC50 is commonly meant the midpoint of a concentration-inhibition curve. `C[C@H]1O[C@H](O[C@H]2[C@H](O)[C@@H](O)[C@@H](O[C@H]3[C@H](O)[C@@H](O)C(O)O[C@@H]3CO)O[C@@H]2CO)[C@H](O)[C@@H](O)[C@@H]1N[C@H]1C=C(CO)[C@@H](O)[C@H](O)[C@H]1O` (stereo partly shown) [acarbose]: the “IC50” value is 0.089 ± 0.004 µg/mL (≈ 0.138 µM).
